Patent US20170224662A1 (priority 2016, published 2017)
Values after ≈ are worked out from the molar mass of the structure shown. Read-outs that look alike come from different tables or passages of the source.

Legend:
Assay type in all cases: physicochemical
physchem [1] = details: aqueous buffer, thermodynamic from solid, read-out: Actual [CPMM] Concentration (maximum solubility)
Procedure: CPMM was evaluated for maximum solubility in aqueous pH 1-9 buffer solutions. CPMM was weighted into 1.0 mL of each solution, vortex mixed to solubilize, and placed on a shaker table until saturated. Additional CPMM was added and replaced on the shaker table until a saturated solution was obtained. The one exception was the pH 1 sample solution, which never reached saturation level due to the CPMM's high solubility at that pH range. Saturated solutions were centrifuged and the supernatants were analyzed by HPLC.

physchem [2] = details: imidazole nitrogen in position 3; solubility analysis (log solubility curve) and titration
Source text: The solubility of compounds as disclosed herein is pH-dependent. The imidazole nitrogen in position 3 of CPMM has a pKa of approximately 2.5, as determined by solubility analysis and titration. For example, CPMM is very water soluble at low pH, but solubility decreases with increasing pH, such that it is lower at pH 3-8.

physchem [3] = details: for HPLC [CPMM] Concentration: diluted sample; for Actual [CPMM] Concentration: never saturated, stopped after 100 mg added
Procedure: CPMM solubility was also evaluated in common solvents: water, methanol, ethanol, acetonitrile, and isopropanol. CPMM was weighed into 1.0 mL of each solvent and vortex-mixed. Only the water sample was saturated with CPMM; the other solvents never achieved saturation due to their high CPMM solubility. The screening was stopped after 100 mg of bulk CPMM had been added. Table 2 lists the ABP-700 solubility results in common solvents.

physchem [4] = details: thermodynamic from solid
Procedure: A study was conducted to evaluate whether buffer concentration affects the maximum solubility of CPMM. […] The solutions were prepared and CPMM was added until saturation was achieved. The pH was controlled by continually titrating the solutions to pH 6 using NaOH. Saturation was determined to have been achieved after the pH had stabilized and undissolved remained in the vial after overnight shaking. Solubility was evaluated by taking two separate samplings over the course of two days to verify that saturation had been achieved. Solubility was measured when the formulations were at room temperature, as well as tested when the formulations were under sub-ambient conditions (2-8° C.) to evaluate whether the solubility would be affected at lower temperatures for long term storage at (2-8° C.).

Work on `COC(=O)C1(OC(=O)c2cncn2[C@H](C)c2ccccc2)CC1` [CPMM, 1-(methoxycarbonyl)cyclopropyl-1-[(1R)-1-phenylethyl]-1H-imidazole-5-carboxylate] yielded a solubility (physchem [1]; 50 mM buffer pH 1 (phosphoric acid), actual pH 0.63, never saturated, not a true maximum solubility) of 404000 µg/mL (≈ 1280 mM), a solubility (physchem [1]; 50 mM buffer pH 2 (phosphoric acid), actual pH 1.43) of 49400 µg/mL (≈ 157 mM) and a solubility (physchem [1]; 50 mM buffer pH 3 (phosphoric acid), actual pH 2.62) of 3150 µg/mL (≈ 10 mM). For the same molecule, the solubility (physchem [1]; 50 mM buffer pH 4 (citric acid), actual pH 3.5) was 677 µg/mL (≈ 2.15 mM), the solubility (physchem [1]; 50 mM buffer pH 5 (citric acid), actual pH 4.57) was 325 µg/mL (≈ 1.03 mM) and the solubility (physchem [1]; 50 mM buffer pH 6 (citric acid), actual pH 5.55) was 284 µg/mL (≈ 0.903 mM). It also gave a solubility (physchem [1]; 50 mM buffer pH 7 (phosphoric acid), actual pH 6.68) of 268 µg/mL (≈ 0.853 mM), a solubility (physchem [1]; 50 mM buffer pH 8 (phosphoric acid), actual pH 7.48) of 260 µg/mL (≈ 0.827 mM) and a solubility (physchem [1]; 50 mM buffer pH 9 (phosphoric acid), actual pH 8.81) of 279 µg/mL (≈ 0.888 mM). For the same molecule, the pKa (physchem [2]) was about 2.5, the “HPLC [CPMM] Concentration” value (physchem [3]; Acetonitrile, dilution factor 166.67) was 474.2 µg/mL and the “Actual [CPMM] Concentration” value (physchem [3]; Acetonitrile) was 79034.9 µg/mL. For the same molecule, the “HPLC [CPMM] Concentration” value (physchem [3]; Ethanol, dilution factor 166.67) was 534.3 µg/mL, the “Actual [CPMM] Concentration” value (physchem [3]; Ethanol) was 89051.8 µg/mL and the “HPLC [CPMM] Concentration” value (physchem [3]; Isopropanol, dilution factor 166.67) was 514.5 µg/mL. For the same molecule, the “Actual [CPMM] Concentration” value (physchem [3]; Isopropanol) was 85751.7 µg/mL, the “HPLC [CPMM] Concentration” value (physchem [3]; Methanol, dilution factor 166.67) was 503.2 µg/mL and the “Actual [CPMM] Concentration” value (physchem [3]; Methanol) was 83868.3 µg/mL. For the same molecule, the “HPLC [CPMM] Concentration” value (physchem [3]; Water, dilution factor 6.67) was 449.2 µg/mL, the solubility thermodynamic (physchem [3]; thermodynamic from solid, Water, saturated, read-out: Actual [CPMM] Concentration) was 3000 µg/mL (≈ 9.53 mM) and the solubility (physchem [4]; 2 °C, pH 6.02, aqueous with cosolvent or surfactant or cyclodextrin, 10% SBECD in 25 mM Citrate, 2-8° C./ambient RH, pH 6.02, read-out: CPMM Amount (maximum solubility)) was 5590 µg/mL (≈ 17.8 mM). It also gave a solubility (physchem [4]; 2 °C, pH 6.05, aqueous with cosolvent or surfactant or cyclodextrin, 10% SBECD in 10 mM Citrate, 2-8° C./ambient RH, pH 6.05, read-out: CPMM Amount (maximum solubility)) of 5480 µg/mL (≈ 17.4 mM), a solubility (physchem [4]; pH 5.96, aqueous buffer, 10 mM Citrate, RT/Ambient RH, pH 5.96, read-out: CPMM Amount (maximum solubility)) of 300 µg/mL (≈ 0.954 mM) and a solubility (physchem [4]; pH 5.98, aqueous buffer, 50 mM Citrate, RT/Ambient RH, pH 5.98, read-out: CPMM Amount (maximum solubility)) of 230 µg/mL (≈ 0.732 mM). The solubility (physchem [4]; pH 5.98, aqueous with cosolvent or surfactant or cyclodextrin, 10% SBECD in 10 mM Citrate, RT/Ambient RH, pH 5.98, read-out: CPMM Amount (maximum solubility)) was 5470 µg/mL (≈ 17.4 mM), the solubility (physchem [4]; pH 5.98, aqueous with cosolvent or surfactant or cyclodextrin, 10% SBECD in 25 mM Citrate, RT/Ambient RH, pH 5.98, read-out: CPMM Amount (maximum solubility)) was 5490 µg/mL (≈ 17.5 mM) and the solubility (physchem [4]; pH 5.99, aqueous with cosolvent or surfactant or cyclodextrin, 10% SBECD in 50 mM Citrate, RT/Ambient RH, pH 5.99, read-out: CPMM Amount (maximum solubility)) was 5680 µg/mL (≈ 18.1 mM). It also gave a solubility (physchem [4]; pH 6, aqueous buffer, 25 mM Citrate, RT/Ambient RH, pH 6.00, read-out: CPMM Amount (maximum solubility)) of 280 µg/mL (≈ 0.891 mM), a solubility (physchem [4]; pH 6, aqueous buffer, citrate solutions containing no SBECD, read-out: solubility) of about 300 µg/mL (≈ 0.954 mM) and a solubility (physchem [4]; pH 6, aqueous with cosolvent or surfactant or cyclodextrin, 10% SBECD solutions at all citrate concentrations, regardless of the condition, read-out: solubility) of about 5500 µg/mL (≈ 17.5 mM).
